Measurements published in ChEMBL document CHEMBL1125236 (J Med Chem, 1991).
Several values for one entry are separate records, joined by “and”; a condition that tells them apart may be missing. Identical values can stand only once.

Legend:
[1] = Compound was evaluated for growth inhibition of WI-L2 cells.; format: functional, cell-based; details: Homo sapiens, WIL2
Dihydrofolate reductase = molecular target: T1, Dihydrofolate reductase (Homo sapiens, UniProt P00374)
T1 sequence (P00374 whole entry): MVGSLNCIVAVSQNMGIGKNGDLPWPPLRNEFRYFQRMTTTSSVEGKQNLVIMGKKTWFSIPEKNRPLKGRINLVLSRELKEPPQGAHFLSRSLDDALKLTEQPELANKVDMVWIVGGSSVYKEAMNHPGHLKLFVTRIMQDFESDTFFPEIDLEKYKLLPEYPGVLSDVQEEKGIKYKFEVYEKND
Description: Inhibition of dihydrofolate reductase (DHFR) from human cells (WI-L2/M4).

L1210 [2] = assay: Compound was evaluated for the growth inhibition of L1210 cells.; format: functional, cell-based; details: Mus musculus
L1210 [3] = assay: Antitumor activity (T/C) evaluated against L1210 leukemia from the median survival time of treated mice (T) over that of control mice (C) at a dose of 4 mg/kg; format: functional, Mus musculus
L1210 [4] = assay: Antitumor activity (T/C) evaluated against L1210 leukemia from the median survival time of treated mice (T) over that of control mice (C) at a dose of 1 mg/kg; format: functional, Mus musculus
L1210 [5] = assay: Antitumor activity (T/C) evaluated against L1210 leukemia from the median survival time of treated mice (T) over that of control mice (C) at a dose of 0.75 mg/kg as experiment 3
L1210 [6] = assay: Antitumor activity (T/C) evaluated against L1210 leukemia from the median survival time of treated mice (T) over that of control mice (C) at a dose of […] as experiment 1; format: functional, Mus musculus

IC50 (Dihydrofolate reductase) [nM] | IC50 (L1210 [2]) [nM] | Structure (SMILES) | IC50 [1] [nM] | T/C (L1210 [3]) | T/C (L1210 [4]) [%] | T/C (L1210 [5]) [%] | T/C (L1210 [6]) [%]
32 | 25 | Nc1nc(N)c2nc(CNc3ccc(C(=O)NC(CCC(=O)Nc4cccc(C(=O)O)c4)C(=O)O)cc3)cnc2n1 (stereo not drawn) | 6.1 | – | – | – | –
– | – | Nc1nc(N)c2nc(CNc3ccc(C(=O)N[C@@H](CCC(=O)O)C(=O)O)cc3)cnc2n1 [AMINOPTERIN] | 7.1 | – | – | – | –
– | – | CN(Cc1cnc2nc(N)nc(N)c2n1)c1ccc(C(=O)N[C@@H](CCC(=O)O)C(=O)O)cc1 [METHOTREXATE] | – | 175% and 188% and 200% | 188 | 175 | 213
